Assay results published in ChEMBL document CHEMBL5046300, “Potent Bactericidal Antimycobacterials Targeting the Chaperone ClpC1 Based on the Depsipeptide Natural Products Ecumicin and Ohmyungsamycin A” (2022).
Converted amounts (≈) assume the structure as drawn. The source made the active and inactive calls. The rule behind the calls is not given here. Where a SMILES comes first, the peptide text is derived from it. Bridges are numbered along the chain shown (N, C = ends). [ ]: non-standard residue; d: D form. NMeW = CN[C@@H](Cc1c[nH]c2ccccc12)C(=O)O; NMeChg = CN[C@H](C(=O)O)C1CCCCC1; NMeT = CN[C@H](C(=O)O)[C@@H](C)O; NMeD = CN[C@@H](CC(=O)O)C(=O)O; NMeL = CN[C@@H](CC(C)C)C(=O)O; NMeDap = CN[C@@H](CN)C(=O)O; NMeV = CN[C@H](C(=O)O)C(C)C; NMeS = CN[C@@H](CO)C(=O)O; Pip = O=C(O)[C@@H]1CCCCN1; Sar = CNCC(=O)O

Legend:
[1] = test system: Mycobacterium tuberculosis; experiment: Antimycobacterial activity against Mycobacterium tuberculosis mc2 6230 measured after 7 days; type: functional; settings: mc2 6230, 168 h, time 7 day
[2] = test system: Mycobacterium tuberculosis; experiment: Antimycobacterial activity against Mycobacterium tuberculosis mc2 6230 assessed as log reduction in bacteria measured up to 21 days by Time kill assay; type: functional, organism-based; settings: time day <=21
Escherichia coli = experiment: Antibacterial activity against Escherichia coli K-12 MG1655 assessed as bacterial growth inhibition incubated for 18 to 20 hrs by broth microdilution method; type: functional; settings: time 18-20 hrs
Klebsiella aerogenes = experiment: Antibacterial activity against Klebsiella aerogenes ATCC 35029 assessed as bacterial growth inhibition incubated for 18 to 20 hrs by broth microdilution method; type: functional; settings: time 18-20 hrs
Klebsiella pneumoniae = experiment: Antibacterial activity against Klebsiella pneumoniae ATCC 700603 assessed as bacterial growth inhibition incubated for 18 to 20 hrs by broth microdilution method; type: functional; settings: time 18-20 hrs
[3] = test system: Providencia alcalifaciens; experiment: Antibacterial activity against Providencia alcalifaciens ATCC 9886 assessed as bacterial growth inhibition incubated for 18 to 20 hrs by broth microdilution method; type: functional; settings: time 18-20 hrs
Salmonella enterica = experiment: Antibacterial activity against Salmonella enterica ATCC 13311 assessed as bacterial growth inhibition incubated for 18 to 20 hrs by broth microdilution method; type: functional; settings: time 18-20 hrs
Shigella sonnei = experiment: Antibacterial activity against Shigella sonnei ATCC 25931 assessed as bacterial growth inhibition incubated for 18 to 20 hrs by broth microdilution method; type: functional; settings: time 18-20 hrs
[4] = test system: Yersinia pseudotuberculosis; experiment: Antibacterial activity against Yersinia pseudotuberculosis ATCC 6904 assessed as bacterial growth inhibition incubated for 18 to 20 hrs by broth microdilution method; type: functional; settings: time 18-20 hrs
Acinetobacter baumannii = experiment: Antibacterial activity against Acinetobacter baumannii ATCC 19606 assessed as bacterial growth inhibition incubated for 18 to 20 hrs by broth microdilution method; type: functional; settings: time 18-20 hrs
Pseudomonas aeruginosa = experiment: Antibacterial activity against Pseudomonas aeruginosa ATCC 27853 assessed as bacterial growth inhibition incubated for 18 to 20 hrs by broth microdilution method; type: functional; settings: time 18-20 hrs
Vibrio cholerae = experiment: Antibacterial activity against Vibrio cholerae A1552 El Tor assessed as bacterial growth inhibition incubated for 18 to 20 hrs by broth microdilution method; type: functional; settings: time 18-20 hrs
Brucella anthropi = experiment: Antibacterial activity against Ochrobactrum anthropi ATCC 49687 assessed as bacterial growth inhibition incubated for 18 to 20 hrs by broth microdilution method; type: functional; settings: time 18-20 hrs
Bacillus subtilis = experiment: Antibacterial activity against Bacillus subtilis ATCC 6051 assessed as bacterial growth inhibition incubated for 18 to 20 hrs by broth microdilution method; type: functional; settings: time 18-20 hrs
Listeria ivanovii = experiment: Antibacterial activity against Listeria ivanovii BAA-139 assessed as bacterial growth inhibition incubated for 18 to 20 hrs by broth microdilution method; type: functional; settings: time 18-20 hrs
Staphylococcus aureus [5] = experiment: Antibacterial activity against methicillin-sensitive Staphylococcus aureus ATCC 29213 assessed as bacterial growth inhibition incubated for 18 to 20 hrs by broth microdilution method; type: functional; settings: time 18-20 hrs
Staphylococcus aureus [6] = experiment: Antibacterial activity against methicillin-resistant Staphylococcus aureus BAA-44 assessed as bacterial growth inhibition incubated for 18 to 20 hrs by broth microdilution method; type: functional; settings: time 18-20 hrs
[7] = test system: Staphylococcus epidermidis; experiment: Antibacterial activity against Staphylococcus epidermidis ATCC 14990 assessed as bacterial growth inhibition incubated for 18 to 20 hrs by broth microdilution method; type: functional; settings: time 18-20 hrs
Enterococcus faecium = experiment: Antibacterial activity against Enterococcus faecium ATCC 6569 assessed as bacterial growth inhibition incubated for 18 to 20 hrs by broth microdilution method; type: functional; settings: time 18-20 hrs
Enterococcus faecalis = experiment: Antibacterial activity against Enterococcus faecalis ATCC 29212 assessed as bacterial growth inhibition incubated for 18 to 20 hrs by broth microdilution method; type: functional; settings: time 18-20 hrs
Streptococcus pneumoniae = experiment: Antibacterial activity against Streptococcus pneumoniae ATCC 49619 assessed as bacterial growth inhibition incubated for 18 to 20 hrs by broth microdilution method; type: functional; settings: time 18-20 hrs

Compound: CN[C@H](C(=O)N[C@H](C(=O)N[C@@H]1C(=O)N(C)[C@@H]([C@@H](C)O)C(=O)N[C@@H](C(C)C)C(=O)N(C)[C@@H](CC(C)C)C(=O)N[C@@H](C(C)C)C(=O)N(C)[C@@H](CN)C(=O)N(C)[C@@H](Cc2c[nH]c3ccccc23)C(=O)N[C@@H](C(C)C)C(=O)N[C@@H](Cc2ccccc2)C(=O)N[C@@H](C(C)C)C(=O)O[C@@H]1C)C(C)C)C(C)C (H-[NMeV]VT[NMeT]V[NMeL]V[NMeDap][NMeW]VFV; ester 3-C)
- MIC [1]: 2 µM (≈ 2.8 µg/mL)

Compound: CN[C@H](C(=O)N[C@H](C(=O)N[C@@H]1C(=O)N(C)[C@@H]([C@@H](C)O)C(=O)N[C@@H](C(C)C)C(=O)N(C)[C@@H](CC(C)C)C(=O)N[C@@H](C(C)C)C(=O)N(C)[C@@H](CO)C(=O)N(C)[C@@H](Cc2c[nH]c3ccccc23)C(=O)N[C@@H](C(C)C)C(=O)N[C@@H](Cc2ccccc2)C(=O)N[C@@H](C(C)C)C(=O)O[C@@H]1C)C(C)C)C(C)C (H-[NMeV]VT[NMeT]V[NMeL]V[NMeS][NMeW]VFV; ester 3-C)
- MIC [1]: 2 µM (≈ 2.8 µg/mL)

Compound: CN[C@H](C(=O)N[C@H](C(=O)N[C@@H]1C(=O)N(C)[C@@H]([C@@H](C)O)C(=O)N[C@@H](C(C)C)C(=O)N(C)[C@@H](CC(C)C)C(=O)N[C@@H](C(C)C)C(=O)N(C)[C@@H](CC(=O)O)C(=O)N(C)[C@@H](Cc2c[nH]c3ccccc23)C(=O)N[C@@H](C(C)C)C(=O)N[C@@H](Cc2ccccc2)C(=O)N[C@@H](C(C)C)C(=O)O[C@@H]1C)C(C)C)C(C)C (H-[NMeV]VT[NMeT]V[NMeL]V[NMeD][NMeW]VFV; ester 3-C)
- MIC [1]: 32 µM (≈ 45.7 µg/mL)

Compound: CN[C@H](C(=O)N[C@H](C(=O)N[C@@H]1C(=O)N(C)[C@@H]([C@@H](C)O)C(=O)N[C@@H](C(C)C)C(=O)N(C)[C@@H](CC(C)C)C(=O)N[C@@H](C(C)C)C(=O)N(C)[C@@H](CC(C)C)C(=O)N(C)[C@@H](Cc2c[nH]c3ccccc23)C(=O)N[C@@H](C(C)C)C(=O)N[C@@H](Cc2ccccc2)C(=O)N[C@@H](C(C)C)C(=O)O[C@@H]1C)C(C)C)C(C)C (H-[NMeV]VT[NMeT]V[NMeL]V[NMeL][NMeW]VFV; ester 3-C)
- MIC [1]: 0.25 µM (≈ 0.357 µg/mL)
- Activity [2]: Active

Compound: CN[C@H](C(=O)N[C@H](C(=O)N[C@@H]1C(=O)N(C)[C@@H]([C@@H](C)O)C(=O)N[C@@H](C(C)C)C(=O)N(C)[C@@H](CC(C)C)C(=O)N[C@@H](C(C)C)C(=O)N(C)CC(=O)N(C)[C@@H](Cc2c[nH]c3ccccc23)C(=O)N[C@@H](C(C)C)C(=O)N[C@@H](Cc2ccccc2)C(=O)N[C@@H](C(C)C)C(=O)O[C@@H]1C)C(C)C)C(C)C (H-[NMeV]VT[NMeT]V[NMeL]V[Sar][NMeW]VFV; ester 3-C)
- MIC [1]: 8 µM (≈ 11 µg/mL)

Compound: CN[C@H](C(=O)N[C@H](C(=O)N[C@@H]1C(=O)N(C)[C@@H]([C@@H](C)O)C(=O)N[C@@H](C(C)C)C(=O)N(C)[C@@H](CC(C)C)C(=O)N[C@@H](C(C)C)C(=O)N2CCCC[C@H]2C(=O)N(C)[C@@H](Cc2c[nH]c3ccccc23)C(=O)N[C@@H](C(C)C)C(=O)N[C@@H](Cc2ccccc2)C(=O)N[C@@H](C(C)C)C(=O)O[C@@H]1C)C(C)C)C(C)C (H-[NMeV]VT[NMeT]V[NMeL]V[Pip][NMeW]VFV; ester 3-C)
- MIC [1]: 4 µM (≈ 5.64 µg/mL)

Compound: CN[C@H](C(=O)N[C@H](C(=O)N[C@@H]1C(=O)N(C)[C@@H]([C@@H](C)O)C(=O)N[C@@H](C(C)C)C(=O)N(C)[C@@H](CC(C)C)C(=O)N[C@@H](C(C)C)C(=O)N(C)[C@@H](C2CCCCC2)C(=O)N(C)[C@@H](Cc2c[nH]c3ccccc23)C(=O)N[C@@H](C(C)C)C(=O)N[C@@H](Cc2ccccc2)C(=O)N[C@@H](C(C)C)C(=O)O[C@@H]1C)C(C)C)C(C)C (H-[NMeV]VT[NMeT]V[NMeL]V[NMeChg][NMeW]VFV; ester 3-C)
- MIC [1]: 0.5 µM (≈ 0.726 µg/mL)

Compound: CN[C@@H]1[C@H](O[C@H]2[C@H](O[C@H]3[C@H](O)[C@@H](O)[C@H](N=C(N)N)[C@@H](O)[C@@H]3N=C(N)N)O[C@@H](C)[C@]2(O)C=O)O[C@@H](CO)[C@H](O)[C@H]1O [STREPTOMYCIN]
- MIC (Escherichia coli): 0.25 µM (≈ 0.145 µg/mL)
- MIC (Klebsiella aerogenes): 0.25 µM (≈ 0.145 µg/mL)
- MIC (Klebsiella pneumoniae): 0.17 µM (≈ 0.0989 µg/mL)
- MIC [3]: 9.3 µM (≈ 5.41 µg/mL)
- MIC (Salmonella enterica): 0.33 µM (≈ 0.192 µg/mL)
- MIC (Shigella sonnei): 0.25 µM (≈ 0.145 µg/mL)
- MIC [4]: 6.7 µM (≈ 3.9 µg/mL)
- MIC (Acinetobacter baumannii): 128 µM (≈ 74.4 µg/mL)
- MIC (Pseudomonas aeruginosa): 16 µM (≈ 9.31 µg/mL)
- MIC (Vibrio cholerae): 13 µM (≈ 7.56 µg/mL)
- MIC (Brucella anthropi): 128 µM (≈ 74.4 µg/mL)
- MIC (Bacillus subtilis): 128 µM (≈ 74.4 µg/mL)
- MIC (Listeria ivanovii): 4 µM (≈ 2.33 µg/mL)
- MIC (Staphylococcus aureus [5]): 2.7 µM (≈ 1.57 µg/mL)
- MIC (Staphylococcus aureus [6]): 9.3 µM (≈ 5.41 µg/mL)
- MIC [7]: 2.7 µM (≈ 1.57 µg/mL)
- MIC (Enterococcus faecium): 16 µM (≈ 9.31 µg/mL)
- MIC (Enterococcus faecalis): 128 µM (≈ 74.4 µg/mL)
- MIC (Streptococcus pneumoniae): 48 µM (≈ 27.9 µg/mL)
